# Source: patent US20180280337A1, “NUTRITIONAL COMPOSITIONS COMPRISING SN-1(3) MONOACYLGLYCEROLS FOR USE IN THE TREATMENT OF GROWTH DELAY IN INFANTS OR CHILDREN” (NESTEC S.A., priority 2014, published 2018)
# What was measured:
# [1] = Lipid maldigestion or malabsorption rat model (XENICAL-induced): EPA level in red blood cells and tissue after feeding EPA glycerides or fish oil; format: in vivo; settings: for level of EPA incorporated in red blood cells: rats given XENICAL, day 7 data (FIG. 3)
# Protocol: The concept was tested in a lipid maldigestion or malabsorption rat model. The maldigestion or malabsorption condition was obtained using XENICAL® (ORLISTAT, tetrahydrolipstatin), a pancreatic and gastric lipases inhibitor. Rats were fed during 21 days with long-chain polyunsaturated fatty acid (LC-PUFA) supplements containing mainly eicosapentaenoic (EPA) acid. Fish oil was used as a source of triacylglycerols, and different EPA glycerides were evaluated: Vanillin acetal of 2-EPA (from Stepan Lipid Nutrition); 1,3 Diacetyl-2 EPA (from Stepan Lipid Nutrition) and Sn-1(3)-MAG-EPA (purchased from Cognis GmbH, Germany). XENICAL® (ORLISTAT) was given at a level sufficient to decrease lipid absorption by 40%. A group receiving fish oil without XENICAL® (ORLISTAT) was used as a positive control. At different time intervals (D3, D7, […]), the fatty acid profiles of red blood cells and plasma lipids were determined. At the end of the experiment, the fatty acid profiles of different tissues were determined. The main objective was to follow the level of EPA in red blood cells and plasma lipids. The main comparison evaluated was the difference in EPA level between the group receiving EPA glycerides such as EPA-containing sn-1(3) MAG, in combination with XENICAL® (ORLISTAT) and the positive control group […].
# [2] = Clinical study comparing sn-1(3) MAG and fish oil (TAG) in delivering EPA under lipid maldigestion induced by XENICAL; format: in vivo, humans; settings: for chronic effect: accretion of EPA in erythrocytes as percentage of total fatty acids: compared with fish oil + XENICAL, p=0.0001 (FIG. 6)
# Protocol: This clinical study compared the efficacy of sn-1(3) MAG and fish oil (TAG) in delivering EPA in humans under lipid maldigestion conditions induced by XENICAL® (ORLISTAT). The comparison was tested in volunteers treated with XENICAL® to induce lipid maldigestion or not treated with XENICAL® (ORLISTAT). The primary objective was to assess accretion of EPA in erythrocytes over 21 days when consumed as fish oil (TAG) or sn-1(3) MAG. The secondary objectives were to assess accretion of EPA in plasma over 21 days and also to assess the pharmacokinetics of EPA after an acute dose either in the form of sn-1(3) MAG or TAG (AUC in chylomicrons over 10 hours postprandial). See FIG. 4 that describes the clinical study timeline.
SMILES,"effect of XENICAL on EPA incorporation in red blood cells ([1]; fish oil + XENICAL compared with fish oil without XENICAL, day 7)","incorporation of LC-PUFAs in tissue ([1]; conditions of lipid maldigestion or malabsorption (XENICAL), comparison of groups A, B and C)",level of EPA incorporated in red blood cells ([1]; compared with fish oil group without XENICAL),"level of EPA incorporated in red blood cells ([1]; fed 21 days, compared with fish oil + XENICAL, all P values lower than 0.05, listed as sn-1(3) MAG that contained EPA)","level of EPA incorporated in red blood cells ([1]; fed 21 days, compared with fish oil + XENICAL, all P values lower than 0.05, listed as sn-1(3)MAGs)","chronic effect: accretion of EPA in erythrocytes as percentage of total fatty acids ([2]; after 21 days, with XENICAL)","chronic effect: accretion of EPA in erythrocytes as percentage of total fatty acids ([2]; after 21 days, with XENICAL, listed as sn-1(3)MAGs)","chronic effect: accretion of EPA in plasma as percentage of total fatty acids ([2]; after 21 days, with XENICAL, relative to fish oil + XENICAL, p=0.0003 (FIG. 7))","carrier for EPA (overall conclusion of the clinical trial) ([2]; human subjects treated with XENICAL, compared with fish oil (TAG))"
"CCCCCCCCCCC[C@@H](C[C@@H]1OC(=O)[C@H]1CCCCCC)OC(=O)[C@H](CC(C)C)NC=O [XENICAL, tetrahydrolipstatin, reference compound]",decreases EPA incorporation in red blood cells,,,,,,,,
"CC/C=C\C/C=C\C/C=C\C/C=C\C/C=C\CCCC(=O)OCC(O)CO (stereo not drawn) [sn-1(3) MAG, sn-1(3)-monoeicosapentaenoylglycerol]",,improved,even higher than the fish oil group,statistically higher,significantly higher,statistically significant,significantly higher,statistically significant,better carrier for EPA than fish oil (TAG)
